Data set [1] deals with P. cynomolgi developing EEFs (liver schizonts) in primary rhesus hepatocytes. The data set is described as follows: In vitro liver-stage drug assay with P. cynomolgi, large forms (developing EEFs / liver schizonts). In kind it is cell-based, Plasmodium cynomolgi. As to conditions: compound exposure 6 days, mean of several (9) independent assays, read-out: IC50 against developing EEFs / liver schizonts (large forms). Here is the method: In vitro infections of primary rhesus hepatocytes with P. cynomolgi sporozoites were performed according to methods described previously by Zeeman et al. ([10]). At day 6 postinfection (p.i.), the assay mixtures were fixed and stained with anti-P. cynomolgi Hsp70 rabbit antiserum and a fluorescein isothiocyanate (FITC)-labeled secondary antibody (goat anti-rabbit). Plates were analyzed with the Operetta high-content imaging system, differentially counting hypnozoites and developing extraerythrocytic forms (EEFs), based on parasite size ([10]).
In vitro activity against P. cynomolgi liver stages was determined for both compounds. The numbers of small (hypnozoites) and large (developing EEFs) parasites were determined by using Operetta and image analysis of primary rhesus hepatocyte cultures infected with P. cynomolgi sporozoites and exposed to the compound for 6 days ([10]). […] IC50s were determined by using the least-squares nonlinear regression method (Prism) for small and large parasites. Data from several independent experiments were used to calculate the IC50s for the two compounds.

On the set-up of data set [2]: species or system rhesus macaques (Macaca mulatta). The conditions noted are these: rhesus monkey, in vivo, po, 20 mg/kg. The source says: Blood samples were collected for clinical evaluation and pharmacokinetic (PK) analysis (see Table S2 in the supplemental material).
Details of in vivo PK studies of KDU691 and LMV599 in CD-1 mice and monkeys can be found in the supplemental material.
P. cynomolgi sporozoite production
A monkey was infected with […] P. cynomolgi M strain blood stage parasites, thawed from a first passage stock (i.e. blood stage parasites from a monkey infected with P. cynomolgi M strain sporozoites). For each batch of sporozoites needed, a single monkey was infected with P. cynomolgi blood stage parasites.
At day 11 and 12 post infection 9 mL infected blood was collected into a Lithium-heparinised tube. The blood was kept at 38°C and fed approximately 500 three to five days old female Anopheles stephensi mosquitoes Sind-Kasur strain Nijmegen (Nijmegen University Medical Centre St Radboud, Department of Medical Microbiology) using a glass feeder system as described by Ponnudurai et al.. After the second bleed, the monkey was cured by three daily intramuscular injections of 7.5 mg/kg chloroquine, monitored for parasite clearance 24 days after chloroquine treatment and returned to colony.
Mosquitoes were kept in climate chambers at 25 °C and 80% humidity and were fed 5% D -glucose on cotton pads daily. Seven days after feeding on the infected rhesus blood, oocyst numbers were determined in midguts of ten individuals, using 1% mercurochrome stain. Mosquitoes were given a second (uninfected) blood meal immediately afterwards to promote sporozoite maturation and invasion of the salivary glands. Sporozoites were isolated from the P. cynomolgi infected mosquitoes around day16 after the infected blood meal.
In vivo monkey infection and treatment procedures
Sporozoites were isolated from the P. cynomolgi infected mosquitoes around day16 after the infected blood meal. For this, mosquitoes were collected in a beaker and killed with 70% ethanol. After four washes in Leibovitz’ L15 medium containing 3% FCS and 2% pen/strep, salivary glands were dissected.
Salivary glands were kept on ice at all times, sporozoites were liberated by pottering. The sporozoites were washed with PBS, counted in a Burker-Turk chamber, and diluted to 100,000 spz/mL in PBS.
Aliquots of 1 mL were prepared and injected into monkeys via intravenous (i.v.) injection. […]
group (691-RC-high) and a control group (691-C)
KDU691 was formulated as a micro suspension in 0.5% Methylcellulose/0.5% Tween 80 in water, maximum one hour before dosing. The amount of KDU691 sufficient to treat all animals of one group was weighed, a microsuspension of 10 mg/mL in methylcellulose/tween was made and sonicated (Soniprep 150, Sanyo) with an amplitude of 12-15 µm for 15 min. The dose for each monkey was transferred to a 50 mL tube, which was vortexed extensively just before administration.
To collect samples for KDU691 PK analysis in monkeys, approximately 100 µL blood was taken from the calf vein for each time point and immediately spotted onto DBS filters (PKI Bioanalysis cards, Perkin Elmer). […]
The monkeys of the LMV599/PQ experiment were cured with a five day CQ treatment (7.5 mg/kg, i.m. administration) at the first relapse and were monitored until the second relapse after which they were cured with CQ (7.5 mg/kg, intramuscular (i.m.) for five days) plus PQ (1.8 mg/kg for 14 days). […]

SMILES strings stand for the structures. Values joined by “and” are separate entries in the source; they are usually repeats but may differ in a detail not shown here. Equal entries are not always repeated.

Results on one molecule are retold here after PMC4862498, “PI4 Kinase Is a Prophylactic but Not Radical Curative Target in Plasmodium vivax-Type Malaria Parasites” (Antimicrobial Agents and Chemotherapy, 2016).

Broadly, the AUC is concentration integrated over time. Low values mean less exposure, high ones more exposure. The term Cmax denotes the highest concentration seen after dosing.

Take `CNC(=O)c1ccc(-c2cnc3cnc(C(=O)N(C)c4ccc(Cl)cc4)cn23)cc1` [KDU691]: the IC50 in data set [1] is 61 nM and 60 nM. Further, in data set [2], the “% fT > TRE” value is 16.7%, the AUC was 38.82 µM·h, the Cmax came out at 4.31 µM and the fAUC/TRE is listed as 13.08. Further, the fCmax/TRE in data set [2] came out at 1.45.
